Test results: patent US9992989B2, “Dual action lethal containers, systems, methods and compositions for killing adult mosquitos and larvae” (University of Florida Research Foundation, Inc., priority 2012, dated 2018)

Assays:
mosquito larvae = assay: Dual-action ovitrap test, larval survival (Protocol D); format: in vivo; conditions: for Mosquito larval survival / mortality versus hours of exposure: larvae in water of ovitrap treated with coating (FIGS. 9-11)
Description: The following protocols A, B, C and D list the flowchart methodologies for experiments that were conducted for evaluating the different coatings used. • A. Flowchart of methodology in the evaluation of adulticide coating includes the steps of: • i. Obtain preferred coating basis; • ii. Add adulticide (pyrethroids) and, if desired, an additive (CARBONXIDE™) to formulate different formulations of insecticides; • iii. Add coating on wood panels; • iv. Age wood panels in simulated environmental conditions; • v. Prepare housing for adult mosquitoes • a Place a 4-oz plastic cup upside down on coated wood panels; • vi. Place adult mosquitoes in the housing cup to expose them to insecticidal coating; • vii. Measure mosquito mortality in 1-hour, 2-hour, and 24-hour after exposure; • viii. Collect data and perform statistical analysis to determine effectiveness of adulticide coating. • B. Flowchart of methodology in the evaluation of larvicide coating can include: • i. Obtain preferred coating basis; • ii. Add larvicide (insect growth regulators) and, if desired, an additive (CARBONXIDE™); • iii. Coat filter paper and let air dry for 1-3 days; • iv. Prepare housing for larval mosquitoes; • a. Place coated filter paper in 4-oz glass jars; • b. Fill jars with unchlorinated or distilled water; • v. Place larval mosquitoes on the jars; • vi. Measure mosquito larva mortality in 12-hour intervals until all are dead or emerged as adults; • vii. Collect data and perform statistical analysis to determine effectiveness of adulticide coating. • C. Flowchart of methodology in evaluation of adulticide coating as applied in lethal ovitrap can include: • i. Obtain preferred coating basis; • ii. Add adulticide (pyrethroids) and, if desired an additive (CARBONXIDE™); • iii. Coat filter paper and let air dry for 1-3 days; • iv. Prepare oviposition cup; • a. Place coated filter paper in a 4-oz plastic cup; • b. Fill cup halfway with unchlorinated or distilled water; • v. Prepare housing for gravid (“pregnant”) females; • a. Cut a 1-inch hole on the side of a 3-gallon bucket; • b. Cover hole with ½ in foam; • vi. […]

[1] = test system: gravid females (adult mosquitoes); assay: Dual-action ovitrap test, adult survival (Protocol D); format: in vivo, mosquito; conditions: gravid females exposed to ovitrap treated with coating (FIGS. 9-11)
Description: (§1) The following protocols A, B, C and D list the flowchart methodologies for experiments that were conducted for evaluating the different coatings used. • A. Flowchart of methodology in the evaluation of adulticide coating includes the steps of: • i. Obtain preferred coating basis; • ii. Add adulticide (pyrethroids) and, if desired, an additive (CARBONXIDE™) to formulate different formulations of insecticides; • iii. Add coating on wood panels; • iv. Age wood panels in simulated environmental conditions; • v. Prepare housing for adult mosquitoes • a Place a 4-oz plastic cup upside down on coated wood panels; • vi. Place adult mosquitoes in the housing cup to expose them to insecticidal coating; • vii. Measure mosquito mortality in 1-hour, 2-hour, and 24-hour after exposure; • viii. Collect data and perform statistical analysis to determine effectiveness of adulticide coating. • B. Flowchart of methodology in the evaluation of larvicide coating can include: • i. Obtain preferred coating basis; • ii. Add larvicide (insect growth regulators) and, if desired, an additive (CARBONXIDE™); • iii. Coat filter paper and let air dry for 1-3 days; • iv. Prepare housing for larval mosquitoes; • a. Place coated filter paper in 4-oz glass jars; • b. Fill jars with unchlorinated or distilled water; • v. Place larval mosquitoes on the jars; • vi. […]

Aedes aegypti = assay: Adult mosquito mortality on aged insecticidal coatings on wood panels (Protocol A); format: in vivo; conditions: 24 h exposure, independent of aging for approximately 2 years (FIG. 7)
Description: as §1

Aedes albopictus = assay: as above; format: in vivo; conditions: 24 h exposure, independent of aging for approximately 2 years (FIG. 8)
Description: as §1

| SMILES | Pupal development / adult emergence from larvae (mosquito larvae; larvae in ovitrap treated with coating (FIG. 11)) | Mosquito larval survival / mortality versus hours of exposure (mosquito larvae) | Adult survival / mortality versus hours of exposure [1] | Percent of Adult Mosquito Mortality (Aedes aegypti) [%] | Percent of Adult Mosquito Mortality (Aedes albopictus) [%] |
| --- | --- | --- | --- | --- | --- |
| CC(COc1ccc(Oc2ccccc2)cc1)Oc1ccccn1 (stereo not shown) [pyriproxyfen] | adults never emerge | killed rapidly when they start molting into the pupal stage | only normal mortality |  |  |
| CC1(C)C(C=C(Cl)Cl)C1C(=O)OCc1cccc(Oc2ccccc2)c1 (stereo not shown) [permethrin] |  | killed rapidly | Adult mortality does not occur until after the females have started laying eggs | 100 | 100 |
